According to the NIST ThermoML archive (doi:10.1016/j.tca.2016.08.003):
Numbers after ± are expanded uncertainties.

How the values were obtained:
[1] = Molar enthalpy of transition or fusion; conditions: Crystal; DSC
[2] = Crystal; DTA

In the case of `O=[N+]([O-])[O-].[K+]` [potassium nitrate], the “Molar enthalpy of transition or fusion” value [1] is reported as 2.49 ± 0.0717 kcal/mol and the Normal melting temperature [2] is reported as 333.80 ± 1.1 °C.

With `O=[N+]([O-])[O-].[Rb+]` [rubidium nitrate] the “Molar enthalpy of transition or fusion” value [1] was 1.17 ± 0.0741 kcal/mol and the Normal melting temperature [2] was 309.50 ± 2 °C.

For `O=[N+]([O-])[O-].[Na+]` [sodium nitrate], the “Molar enthalpy of transition or fusion” value [1] was 3.7 ± 0.0813 kcal/mol and the Normal melting temperature [2] was 305.90 ± 0.6 °C.
